From patent publication US7847108B2, “Oxathiin carboxamides” (Bayer CropScience AG, priority 2003, dated 2010)
Where two headings read alike, the source gives them in different places.

Key:
Puccinia recondite = test: Puccinia test (wheat)/protective; format: in vivo; conditions: 240 h, wheat plants, protective, application rate 500 g/ha, evaluation 10 days after inoculation, solvent/emulsifier parts 25/0.5, 25/0.6 or 50/1.0, read-out: % efficacy
Procedure: Puccinia Test (Wheat)/Protective • Solvent: N,N-dimethylacetamide • Emulsifier: alkylaryl polyglycol ether […] To test for protective activity, young plants are sprayed with the preparation of active compound at the stated application rate. After the spray coating has dried on, the plants are sprayed with a conidia suspension of Puccinia recondite. […] The plants are then placed in a greenhouse at a temperature of about 20° C. and a relative atmospheric humidity of 80% to promote the development of rust pustules.

Alternaria solani = test: Alternaria test (tomato)/protective; format: in vivo; conditions: tomato plants, protective, application rate 750 g/ha, evaluation 7 days after inoculation
Procedure: Alternaria Test (Tomato)/Protective
• Solvent: 49 parts by weight of N,N-dimethylformamide • Emulsifier: 1 part by weight of alkylaryl polyglycol ether
To produce a suitable preparation of active compound, 1 part by weight of active compound is mixed with the stated amounts of solvent and emulsifier, and the concentrate is diluted with water to the desired concentration.
To test for protective activity, young tomato plants are sprayed with the preparation of active compound at the stated application rate. 1 day after the treatment, the plants are inoculated with a spore suspension of Alternaria solani and are then allowed to stand at 100% relative humidity and 20° C. for 24 h. The plants are then allowed to stand at 96% relative atmospheric humidity and a temperature of 20° C.
Evaluation is carried out 7 days after the inoculation. 0% means an efficacy which corresponds to that of the control, whereas an efficacy of 100% means that no infection is observed.

Venturia inaequalis = test: Venturia test (apple)/protective; format: in vivo; conditions: 240 h, apple plants, protective, application rate 100 g/ha, evaluation 10 days after inoculation, read-out: % efficacy
Procedure: Venturia Test (Apple)/Protective
• Solvents: 24.5 parts by weight of acetone 24.5 parts by weight of dimethylacetamide • Emulsifier: 1 part by weight of alkylaryl polyglycol ether
(§1) To produce a suitable preparation of active compound, 1 part by weight of active compound is mixed with the stated amounts of solvents and emulsifier, and the concentrate is diluted with water to the desired concentration.
To test for protective activity, young plants are sprayed with the preparation of active compound at the stated application rate. After the spray coating has dried on, the plants are inoculated with an aqueous conidia suspension of the apple scab pathogen Venturia inaequalis and then remain in an incubation cabin at about 20° C. and 100% relative atmospheric humidity for 1 day.
The plants are then placed in a greenhouse at about 21° C. and a relative atmospheric humidity of about 90%.
Evaluation is carried out 10 days after the inoculation. 0% means an efficacy which corresponds to that of the control, whereas an efficacy of 100% means that no infection is observed.

Botrytis cinerea = test: Botrytis test (bean)/protective; format: in vivo; conditions: 48 h, bean plants, protective, application rate 500 g/ha, evaluation 2 days after inoculation, read-out: % efficacy
Procedure: Botrytis Test (Bean)/Protective
• Solvents:24.5 parts by weight of acetone 24.5 parts by weight of dimethylacetamide • Emulsifier: 1 part by weight of alkylaryl polyglycol ether
as §1
To test for protective activity, young plants are sprayed with the preparation of active compound at the stated application rate. After the spray coating has dried on, 2 small pieces of agar colonized with Botrytis cinerea are placed onto each leaf. The inoculated plants are placed in a dark chamber at about 20° C. and 100% relative atmospheric humidity.
2 days after the inoculation, the size of the infected areas on the leaves is evaluated. 0% means an efficacy which corresponds to that of the control, whereas an efficacy of 100% means that no infection is observed.

[1] = logP determination by HPLC on reversed-phase column (EEC Directive 79/831 Annex V.A8); format: physicochemical; conditions: reversed-phase C18 HPLC column
Procedure: The given logP values were determined in accordance with EEC Directive 79/831 Annex V.A8 by HPLC (High Performance Liquid Chromatography) on a reversed-phase column (C 18). Temperature: 43° C. […] Calibration was carried out using unbranched alkan-2-ones (having 3 to 16 carbon atoms) with known logP values (determination of the logP values by the retention times using linear interpolation between two successive alkanones).

[2] = Table 1 logP / m.p., C18, 43° C., acidic range (pH 2.3), read-out: logP

| Structure (SMILES) | pest or weed control at 500 g/ha (Puccinia recondite) | % efficacy (Alternaria solani) | pest or weed control at 100 g/ha (Venturia inaequalis) | pest or weed control at 500 g/ha (Botrytis cinerea) | chromatographic logP [1, 2] | chromatographic logP ([1]; pH 2.3, C18, 43° C., read-out: logP (pH 2.3)) |
| --- | --- | --- | --- | --- | --- | --- |
| O=C(Nc1ccccc1-c1ccc(Cl)c(Cl)c1)C1=C(C(F)(F)F)OCCS1 [Example 19] | 100% | 100% | 100% | 100% | 3.91 | – |
| Cc1cc(Cl)ccc1-c1ccccc1NC(=O)C1=C(C(F)(F)F)OCCS1 [Example 26] | – | 100% | – | – | 4 | – |
| CC(C)CC(C)c1ccccc1NC(=O)C1=C(C(F)F)OCCS1 (stereo not drawn) [Example 82] | 100% | – | – | – | 4.03 | – |
| O=C(Nc1ccccc1-c1ccc(C(F)(F)F)c(F)c1)C1=C(C(F)(F)F)OCCS1 [Example 29] | 94% | – | – | – | 3.75 | – |
| Cc1cc(-c2ccccc2NC(=O)C2=C(C(F)(F)F)OCCS2)ccc1F [Example 35] | 88% | – | – | – | 3.65 | – |
| O=C(Nc1ccccc1-c1ccc(Cl)cc1Cl)C1=C(C(F)(F)F)OCCS1 [Example 79] | 86% | – | – | – | 3.82 | – |
| O=C(Nc1ccc(F)cc1-c1ccc(Cl)c(Cl)c1)C1=C(C(F)(F)F)OCCS1 [Example 17] | 86% | – | 100% | 96% | 3.95 | – |
| O=C(Nc1ccccc1-c1ccc(Br)cc1)C1=C(C(F)(F)F)OCCS1 [Example 27] | 88% | – | – | – | 3.7 | – |
| CC(C)CC(C)c1ccccc1NC(=O)C1=C(C(F)(F)F)OCCS1 (stereo not drawn) [Example 18] | 100% | – | 100% | 100% | 3.92 | – |
| CC/C(=N\OC)c1ccc(-c2ccccc2NC(=O)C2=C(C(F)(F)F)OCCS2)cc1 [Example 56] | 88% | – | – | – | 4.08 | – |
| O=C(Nc1ccccc1-c1ccc(Br)c(F)c1)C1=C(C(F)(F)F)OCCS1 [Example 57] | 88% | – | – | – | 3.69 | – |
| O=C(Nc1ccccc1-c1ccc(Cl)c(F)c1)C1=C(C(F)(F)F)OCCS1 [Example 23] | 89% | – | – | – | 3.62 | – |
| Cc1ccc(-c2ccccc2NC(=O)C2=C(C(F)(F)F)OCCS2)cc1Cl [Example 38] | 88% | – | – | – | 3.89 | – |
| CC(CC1CCCC1)c1ccccc1NC(=O)C1=C(C(F)(F)F)OCCS1 (stereo not drawn) [Example 37] | 93% | – | – | – | 4.38 | – |
| O=C(Nc1ccccc1-c1ccc(C(F)(F)F)cc1)C1=C(C(F)(F)F)OCCS1 [Example 20] | – | – | 88% | 100% | 3.73 | – |
| CC(C)O/N=C/c1ccc(-c2ccccc2NC(=O)C2=C(C(F)(F)F)OCCS2)cc1 [Example 21] | – | 100% | 100% | 100% | 4.22 | – |
| CC(CC(C)(C)C)c1ccccc1NC(=O)C1=C(C(F)(F)F)OCCS1 (stereo not drawn) [Example 2, N-[2-(1,3,3-trimethylbutyl)phenyl]-6-trifluoromethyl-2,3-dihydro-1,4-oxathiin-5-carboxamide] | 100% | 100% | 98% | 100% | – | 4.18 |
| CCCO/N=C/c1ccc(-c2ccccc2NC(=O)C2=C(C(F)(F)F)OCCS2)cc1 [Example 22] | – | – | 100% | 100% | 4.25 | – |
| O=C(Nc1ccccc1-c1ccc(F)c(Cl)c1)C1=C(C(F)(F)F)OCCS1 [Example 24] | 100% | – | – | – | 3.6 | – |
| CC1CC(C)(C)c2cccc(NC(=O)C3=C(C(F)(F)F)OCCS3)c21 (stereo not drawn) [Example 12] | – | – | 100% | 97% | – | – |
